The values that follow come from article PMC7531004, “Discovery of gramicidin A analogues with altered activities by multidimensional screening of a one-bead-one-compound library” (Nature Communications, 2020).

Where a SMILES comes first, the peptide text is derived from it. [ ]: non-standard residue; d: D form. The star is where a group is joined. NHCH2CH2OH = OCCN*; For = O=C*

Series [1] in a line: H+/Na+ transport assay of bead-derived peptides (one-point).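 Further: relative to parent gramicidin A activity set to 1.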 In kind it is biochemical. The arrangement: key: relative activity; mean of two control wells = 1.00. The settings on record: bead-derived peptide solution, EYPC/EYPG LUVs. How it is done:
(§1) Each type of assay must be simplified and miniaturized to assess the activities of the library peptides in a 96-well format for the high-throughput screening.
H+/Na+ transport assay of bead-derived peptides.1,2,3 Trisodium 8-hydroxypyrene-1,3,6-trisulfonate
mini-extruder apparatus (Avanti Polar Lipids).
28.9 µmol) in CHCl3 (225 µL) and egg yolk phosphatidylglycerol (1.20 mg, 1.56 µmol) in CHCl3 (60.0 µL)
The thin film was hydrated and
1.0 mM pyranine) by sonication.
A suspension of the LUVs was immediately
used for the H+/Na+ transport assay.
The diluted solution of peptide
flat-bottom 96-well plate (655086, Greiner bio-one).
was vortexed at room temperature for 30 min.
(5/95, 3.0 µL) and the LUV suspension were mixed in each plate to determine 100% lysis. The untreated
LUV suspension was used to determine 0% lysis.
normalized against 100% lysis by Triton X-100 (Imax) and 0% lysis (I0) as following, where Ix is the
fluorescence intensity (Supplementary Equation 2).
I = 100 × (Ix – I0) / (Imax – I0) (2)
The mean value of the two control wells was set to 1.00. […]

Series [2] has as its system P388 mouse leukemia cells. Particulars: 92 h. The source says: Each type of assay must be simplified and miniaturized to assess the activities of the library peptides in a 96-well format for the high-throughput screening. […]
Mammalian cytotoxicity assay of bead-derived peptides . P388 cells were obtained from Institute of
Development Aging and Cancer (Tohoku University). The cells were maintained with growth medium
[RPMI1640 with phenol red ( Fujifilm Wako Pure Chemical) supplemented with 10% heat -inactivated fetal
bovine serum, pe nicillin G (100 units/mL), and streptomycin (100 µg/mL)] under atmosphere of 5% CO 2 at
The collected cells were resuspended into
the growth medium at 2 × 10^4 cells/mL. The stock solutions of the peptide library were 250-fold diluted
with the growth medium. Aliquots of the medium (100 µL) containing peptides and the latter medium
containing P388 cells (100 µL) were mixed in a 96-well cell culture plate (TR5003, TrueLine). The final
concentration of P388 cells was 1 × 10^4 cells/mL. After incubation under atmosphere of 5% CO2 at 37 °C
for 92 h, the numbers of viable cells were determined by
2-(4-iodophenyl)-3-(4-nitrophenyl)-5-(2,4-disulfophenyl)-2H-tetrazolium, monosodium salt (WST-1) assay.
A solution of 1-methoxy-5-methylphenazinium methyl sulfate (1-methoxy PMS) and WST-1 in the growth
medium (1-methoxy PMS 0.70 mg/mL in Milli-Q/WST-1 3.6 mg/mL in pH 7.4 HEPES buffer = 1/9) was
added to each well of the plate (10.0 µL/well). The plate was incubated for 4 h under atmosphere of 5% CO2
at 37 °C. The absorbance of each well at 415 nm was measured using a Benchmark microplate reader
(Bio-Rad). The cytotoxicities were evaluated as cell viability (%). […]

The subject of series [3] is Streptococcus pyogenes SSI-9. Put plainly: Antibacterial activity assay of bead-derived peptides (three concentrations). In kind it is cell-based. Particulars: S. pyogenes, bead-derived peptide solution, three concentrations. The arrangement: key: +++: inhibition by the 640-fold diluted peptide solution; ++: inhibition by the 160-fold diluted solution; +: inhibition by the 40-fold diluted solution; -: no inhibition. How it is done:
as §1
Next, the peptides in groups A and B were subjected to the antibacterial assay and structural determination. Three peptide concentrations were applied to evaluate the growth inhibition of S. pyogenes and determine the antibacterial activity. […] Finally, the structures of the peptides were determined. […]
Antibacterial activity assay of bead-derived peptides. The stock solution of the peptide library was 4- and […]
16-fold diluted with DMSO. The non-diluted stock solution, 4-fold diluted solution, and 16-fold diluted […]
solution were transferred to the 96-well round-bottom plate (3367, Corning, 1.0 µL/well). To the solution of […]
peptide in each well was added a suspension of Streptococcus pyogenes SSI-9 strain in cation adjusted […]
Mueller Hinton Broth [40.0 µL, 2 × 10^5 colony forming units (CFU), 21 g/L Mueller Hinton Broth (Difco), 50 […]
mg/L Ca2+ (adjusted with CaCl2•2H2O), and 25 mg/L Mg2+ (adjusted with MgCl2•6H2O)] supplemented with […]
5% laked horse blood (Nippon Biotest Laboratories). The plate was incubated at 37 °C for 18 h, and the precipitation of the grown cells was examined. […]

As to `CC(C)C[C@@H](NC(=O)[C@H](Cc1c[nH]c2ccccc12)NC(=O)[C@H](NC(=O)[C@H](Cc1c[nH]c2ccccc12)NC(=O)[C@H](NC(=O)[C@@H](NC(=O)[C@H](NC(=O)[C@H](C)NC(=O)[C@H](NC(=O)[C@H](C)NC(=O)CNC(=O)[C@@H](NC=O)C(C)C)C(C)C)C(C)C)C(C)C)C(C)C)C(C)C)C(=O)N[C@@H](Cc1c[nH]c2ccccc12)C(=O)N[C@@H](C(=O)N[C@@H](Cc1c[nH]c2ccccc12)C(=O)NCCO)C(C)C` [compound 676] (For-VGA[dV]A[dV]V[dV]W[dV]W[dL]W[dV]W-NHCH2CH2OH), in series [1], the “H+/Na+ transport activity normalized against the value of 1 (1.00)” value (shortened to “H+/Na+ transport activity normalized”) is listed as 1.02. Further, in series [2], the cell viability/% worked out at 100.0%. Moreover, the antibacterial activity result in series [3] is reported as “++”.
In the same order, the values of `CC(C)C[C@@H](NC(=O)[C@H](C)NC(=O)CNC(=O)[C@@H](NC=O)C(C)C)C(=O)N[C@@H](C)C(=O)N[C@@H](C(=O)N[C@H](C(=O)N[C@@H](C(=O)N[C@@H](Cc1c[nH]c2ccccc12)C(=O)N[C@@H](C(=O)N[C@@H](Cc1c[nH]c2ccccc12)C(=O)N[C@@H](C(=O)N[C@@H](Cc1c[nH]c2ccccc12)C(=O)N[C@H](CC(C)C)C(=O)N[C@@H](Cc1c[nH]c2ccccc12)C(=O)NCCO)C(C)C)C(C)C)[C@H](C)O)C(C)C)C(C)C` [compound 809] (For-VGA[dL]A[dV]V[dT]W[dV]W[dV]W[dL]W-NHCH2CH2OH) are 1.13, 100.0% and “-”.
For `CC(C)C[C@@H](NC(=O)[C@H](C)NC(=O)[C@H](NC(=O)[C@H](C)NC(=O)CNC(=O)[C@@H](NC=O)C(C)C)C(C)C)C(=O)N[C@H](C(=O)N[C@H](CC(C)C)C(=O)N[C@@H](Cc1c[nH]c2ccccc12)C(=O)N[C@@H](C(=O)N[C@@H](Cc1c[nH]c2ccccc12)C(=O)N[C@H](CC(C)C)C(=O)N[C@@H](Cc1c[nH]c2ccccc12)C(=O)N[C@@H](C(=O)N[C@@H](Cc1c[nH]c2ccccc12)C(=O)NCCO)C(C)C)C(C)C)C(C)C` [compound 906] (For-VGA[dV]A[dL]V[dL]W[dV]W[dL]W[dV]W-NHCH2CH2OH) the same measures were 1.06, 100.0% and “+”.
For `CC(C)C[C@@H](NC(=O)[C@H](Cc1c[nH]c2ccccc12)NC(=O)[C@H](NC(=O)[C@H](Cc1c[nH]c2ccccc12)NC(=O)[C@H](NC(=O)[C@H](Cc1c[nH]c2ccccc12)NC(=O)[C@H](NC(=O)[C@@H](NC(=O)[C@H](NC(=O)[C@H](C)NC(=O)[C@H](NC(=O)[C@H](C)NC(=O)CNC(=O)[C@@H](NC=O)C(C)C)C(C)C)C(C)C)C(C)C)C(C)C)C(C)C)C(C)C)C(=O)N[C@@H](Cc1c[nH]c2ccccc12)C(=O)NCCO` [compound 1004] (For-VGA[dV]A[dV]V[dV]W[dV]W[dV]W[dL]W-NHCH2CH2OH) the same measures were 1.04, 60.4% and “+”.
Consider `CC(C)C[C@@H](NC(=O)[C@H](Cc1c[nH]c2ccccc12)NC(=O)[C@H](NC(=O)[C@H](Cc1c[nH]c2ccccc12)NC(=O)[C@@H](CC(C)C)NC(=O)[C@H](Cc1c[nH]c2ccccc12)NC(=O)[C@@H](CC(C)C)NC(=O)[C@@H](NC(=O)[C@H](NC(=O)[C@H](C)NC(=O)[C@H](NC(=O)[C@H](C)NC(=O)CNC(=O)[C@@H](NC=O)C(C)C)C(C)C)C(C)C)C(C)C)[C@H](C)O)C(=O)N[C@@H](Cc1c[nH]c2ccccc12)C(=O)NCCO` [compound 1251] (For-VGA[dV]A[dV]V[dL]W[dL]W[dT]W[dL]W-NHCH2CH2OH), for which, in series [1], the “H+/Na+ transport activity normalized” value worked out at 1.00. In addition, the cell viability/% in series [2] worked out at 52.9%. The antibacterial activity entry in series [3] is “+”.
With `CC(C)C[C@@H](NC(=O)[C@H](C)NC(=O)[C@H](NC(=O)[C@H](C)NC(=O)CNC(=O)[C@@H](NC=O)C(C)C)[C@H](C)O)C(=O)N[C@H](C(=O)N[C@H](CC(C)C)C(=O)N[C@@H](Cc1c[nH]c2ccccc12)C(=O)N[C@@H](C(=O)N[C@@H](Cc1c[nH]c2ccccc12)C(=O)N[C@H](CC(C)C)C(=O)N[C@@H](Cc1c[nH]c2ccccc12)C(=O)N[C@@H](C(=O)N[C@@H](Cc1c[nH]c2ccccc12)C(=O)NCCO)C(C)C)[C@H](C)O)C(C)C` [compound 1284] (For-VGA[dT]A[dL]V[dL]W[dT]W[dL]W[dV]W-NHCH2CH2OH), the “H+/Na+ transport activity normalized” value in series [1] is given as 1.06. The compound further displayed a cell viability/% in series [2] of 71.2%. Further, the antibacterial activity entry in series [3] is on record as “-”.
In the same order, the values of `CC(C)C[C@@H](NC(=O)[C@H](C)NC(=O)CNC(=O)[C@@H](NC=O)C(C)C)C(=O)N[C@@H](C)C(=O)N[C@@H](C(=O)N[C@H](C(=O)N[C@@H](C(=O)N[C@@H](Cc1c[nH]c2ccccc12)C(=O)N[C@@H](C(=O)N[C@@H](Cc1c[nH]c2ccccc12)C(=O)N[C@H](CC(C)C)C(=O)N[C@@H](Cc1c[nH]c2ccccc12)C(=O)N[C@@H](C(=O)N[C@@H](Cc1c[nH]c2ccccc12)C(=O)NCCO)C(C)C)C(C)C)C(C)C)C(C)C)C(C)C` [compound 1289] (For-VGA[dL]A[dV]V[dV]W[dV]W[dL]W[dV]W-NHCH2CH2OH) are 1.03, 95.6% and “+”.
Turning to `CC(C)C[C@@H](NC(=O)[C@H](C)NC(=O)[C@H](NC(=O)[C@H](C)NC(=O)CNC(=O)[C@@H](NC=O)C(C)C)C(C)C)C(=O)N[C@H](C(=O)N[C@H](CC(C)C)C(=O)N[C@@H](Cc1c[nH]c2ccccc12)C(=O)N[C@H](CC(C)C)C(=O)N[C@@H](Cc1c[nH]c2ccccc12)C(=O)N[C@H](CC(C)C)C(=O)N[C@@H](Cc1c[nH]c2ccccc12)C(=O)N[C@H](CC(C)C)C(=O)N[C@@H](Cc1c[nH]c2ccccc12)C(=O)NCCO)C(C)C` [compound 1343] (For-VGA[dV]A[dL]V[dL]W[dL]W[dL]W[dL]W-NHCH2CH2OH), the “H+/Na+ transport activity normalized” value in series [1] was determined as 1.02. For the same compound, the cell viability/% in series [2] is 4.0%. Also, in series [3], the antibacterial activity result was “-”.
As for `CNC(=O)C[C@@H](NC(=O)[C@@H](NC(=O)[C@@H](CC(C)C)NC(=O)[C@H](C)NC(=O)[C@@H](CC(C)C)NC(=O)[C@H](C)NC(=O)CNC(=O)[C@@H](NC=O)C(C)C)C(C)C)C(=O)N[C@@H](Cc1c[nH]c2ccccc12)C(=O)N[C@H](CC(C)C)C(=O)N[C@@H](Cc1c[nH]c2ccccc12)C(=O)N[C@H](CC(C)C)C(=O)N[C@@H](Cc1c[nH]c2ccccc12)C(=O)N[C@H](CC(C)C)C(=O)N[C@@H](Cc1c[nH]c2ccccc12)C(=O)NCCO` [compound 1400] (For-VGA[dL]A[dL]V[dD](NHMe)W[dL]W[dL]W[dL]W-NHCH2CH2OH), in series [1], the “H+/Na+ transport activity normalized” value was determined as 1.10. In series [2], the cell viability/% turned out to be 72.7%. Moreover, in series [3], the antibacterial activity entry is reported as “-”.
